Read-outs that look alike come from different tables or passages of the source.
Columns and labels:
[1] = system: tissue nonspecific alkaline phosphatase (TNAP); conditions: relative expression of control without drugs = 1.0
[2] = molecular target: human placental alkaline phosphatase (hPAP) (Homo sapiens, UniProt P05187); assay: Alkaline phosphatase inhibition assay; type: biochemical
human placental alkaline phosphatase (hPAP), sequence (P05187 23-535): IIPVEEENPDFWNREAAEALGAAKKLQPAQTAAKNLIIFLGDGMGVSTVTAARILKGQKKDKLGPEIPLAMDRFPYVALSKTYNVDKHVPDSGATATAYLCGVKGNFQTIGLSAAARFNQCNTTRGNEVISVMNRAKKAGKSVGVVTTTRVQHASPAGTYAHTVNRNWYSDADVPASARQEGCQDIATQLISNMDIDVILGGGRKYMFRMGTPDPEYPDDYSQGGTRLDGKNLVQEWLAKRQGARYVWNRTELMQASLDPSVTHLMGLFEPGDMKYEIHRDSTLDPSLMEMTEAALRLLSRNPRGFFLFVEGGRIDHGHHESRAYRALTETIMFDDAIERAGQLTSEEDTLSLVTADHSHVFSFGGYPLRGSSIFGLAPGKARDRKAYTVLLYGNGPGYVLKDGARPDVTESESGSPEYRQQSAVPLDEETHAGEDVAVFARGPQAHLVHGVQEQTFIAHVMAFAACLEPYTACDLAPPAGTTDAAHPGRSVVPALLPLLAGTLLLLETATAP

c1ccc([C@H]2CN3CCSC3=N2)cc1 [Levamisole] was tested, and the “TNAP Down-regulation” value ([1]; MCF-7, 10 μM) was 0.26 fold.
With CC(C)(O)c1ccccc1CC[C@@H](SCC1(CC(=O)O)CC1)c1cccc(/C=C/c2ccc3ccc(Cl)cc3n2)c1 [Montelukast, (R,E)-2-(1-(((1-(3-(2-(7-chloroquinolin-2-yl)vinyl)phenyl)-3-(2-(2-hydroxypropan-2-yl)phenyl)propyl)thio)methyl)cyclopropyl) acetic acid] the IC50 [2] was 17.5 ± 0.19 µM and the “TNAP Down-regulation” value ([1]; MCF-7, 5 μM) was 0.27 fold.

Source: publication PMC10828691 (Heliyon, 2024)
